Assay results from US20060193880A1, “Method and compositions for attracting mosquitoes employing (R)-(+)-isomers of 1-alkyn-3-ols” (Bedoukian Research, Inc., priority 2005, published 2006).

Key:
Assay type in all cases: in vivo
mosquitoes [1] = assay: Mosquito trap catch, Mosquito Magnet Pro units, Florida; conditions: release rates approx. 60 mg/day and 500 mg/day; 10-18 test days
Procedure: In tests performed in Florida using Mosquito Magnet Pro units, (R)-(+)-1-octyn-3-ol was compared with racemic 1-octyn-3-ol and (S)-(-)-1-octyn-3-ol at release rates of approximately 60 mg/day and 500 mg/day. The lures were rotated among the traps and compared to the same traps with no lure, all relative to a control trap. The (S)-(-)-1-octyn-3-ol caught an average of 39% more mosquitoes relative to the control than the traps when no lure was used (18 test days), the racemic 1-octyn-3-ol caught an average of 240% more mosquitoes than did no lure (10 test days), and the (R)-(+)-1-octyn-3-ol caught an average of 334% more mosquitoes than the traps with no lure (16 test days).

mosquitoes [2] = assay: Mosquito trap catch, Mosquito Magnet Liberty traps, Danbury, Conn.; conditions: porous frit, 1 gram, releasing approx. 1 mg/h, rotated twice among four traps over eight days
Procedure: Tests were conducted with the Mosquito Magnet Liberty model manufactured by American Biophysics Corp. The traps were spaced 65-70 feet apart at the edge of a wetland in Danbury, Conn., at least 25 feet from any buildings. 1 gram of test chemical was added to a clean porous frit of the type normally used in the trap, releasing approximately 1 mg/h. (R)-(+)-1-octyn-3-ol, (S)-(-)-1-octyn-3-ol, (R)-(-)-1-octen-3-ol, and racemic 1-octen-3-ol were rotated twice among four traps over eight days, and the results for each attractant were compared.

mosquitoes [3] = assay: Mosquito trap catch with wax lure and CO2, model 1012 traps, Connecticut; conditions: wax lure, approx. 0.17 mg/hr release, CO2 approx. 140 ml/minute, average of four three-day cycles
Procedure: The following tests were conducted in Connecticut in September 2004. Mosquito traps model 1012 manufactured by John W. Hock Company in Gainesville, Florida were used in these experiments. The traps use a stream of CO2 directed in the vicinity of a collection bag, with a fan used to blow mosquitoes into the bag. The light supplied with the trap was turned off. The traps were spaced 65-70 feet apart at the edge of a wetland in Danbury, Conn., at least 25 feet from any buildings. The (R) and (S)-1-octyn-3-ol was incorporated into a wax lure of the type manufactured by BioSensory, Inc. and placed near a stream of CO2 which was being released at a rate of approximately 140 ml/minute. The traps were operated from approximately 4:00 PM until 9:00 AM the next day. Daytime temperatures were 70-75° F. during the trials. Average weight loss from the wax lures during the test was approximately 4 mg/day, or 0.17 mg/hr. Three traps were used, with either (R)-1-Octyn-3-ol, (S)-1-Octyn-3-ol, or no treatment, rotated among the traps over a three-day cycle. Four complete cycles were performed and the results for each treatment were averaged.
The traps with no attractant were considered as the baseline catch of mosquitoes and the results of the catches with the isomers were compared to this baseline value.

Row | Compound | average more mosquitoes caught than the traps with no lure, relative to a control trap (mosquitoes [1]) [%] | more mosquitoes caught than the trap with the 50:50 racemic mixture of 1-octen-3-ol (mosquitoes [2]) [%] | more mosquitoes captured than the baseline (traps with no attractant) (mosquitoes [3]) [%] | less mosquitoes caught than the trap with the 50:50 racemic mixture of 1-octen-3-ol (mosquitoes [2]) [%]
1 | C#CC(O)CCCCC (racemic) [racemic 1-octyn-3-ol, 1-octyn-3-ol] | 240 | – | – | –
2 | C#C[C@H](O)CCCCC [(R)-(+)-1-octyn-3-ol] | 334 | 34 | 120 | –
3 | C#C[C@@H](O)CCCCC [(S)-(-)-1-octyn-3-ol] | 39 | – | 65 | 23
